Literature values, collected in US8546322B2, “Inhibitors of intracellular urokinase plasminogen activator and methods of use thereof” (The Regents of the University of California, priority 2007, dated 2013).

Assays:
[1] = phase II; cited from earlier work
rat breast cancer = settings: in vivo; cited from earlier work

## CCOC(=O)N1CCN(C(=O)[C@H](Cc2cccc(C(=N)N)c2)NS(=O)(=O)c2c(C(C)C)cc(C(C)C)cc2C(C)C)CC1.Cl [WX-UK1]
[1]
  toxicity in clinical trials (in words): non-toxic
Rat breast cancer
  metastasis and primary tumour growth (in words): suppresses rat breast cancer metastasis
